Data as given in US8563714B2, “Bridged spiro [2.4] heptane derivatives as ALX receptor and/or FPRL2 agonists” (Actelion Pharmaceuticals Ltd., priority 2009, dated 2013).

Columns and labels:
human ALX receptor = target: T1, human ALX receptor (Homo sapiens, UniProt P25090); test: Intracellular calcium measurements (FLIPR), agonistic activity in HEK293-hALXR-Gα16 cells; type: cell-based; settings: Fluo-4 calcium FLIPR, normalized to WKYMVm 10 nM
T1 construct: expressed in transfected cells; host or cells: HEK293 (HEK293-hALXR-Gα16)
T1 sequence (P25090 1-351): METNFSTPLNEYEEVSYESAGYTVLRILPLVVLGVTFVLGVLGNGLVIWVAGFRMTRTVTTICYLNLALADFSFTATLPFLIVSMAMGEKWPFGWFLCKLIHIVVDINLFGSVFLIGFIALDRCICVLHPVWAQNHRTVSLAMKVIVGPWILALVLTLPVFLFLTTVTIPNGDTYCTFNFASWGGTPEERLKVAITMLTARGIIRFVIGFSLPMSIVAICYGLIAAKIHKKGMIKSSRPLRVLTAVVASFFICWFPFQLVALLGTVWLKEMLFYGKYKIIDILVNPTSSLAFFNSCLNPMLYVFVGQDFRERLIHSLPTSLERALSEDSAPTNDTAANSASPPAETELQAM
Procedure: (§1) The ALX receptor and FPRL2 agonistic activities of the compounds of formula (I) are determined in accordance with the following experimental method.
(§2) Intracellular Calcium Measurements:
Cells expressing recombinant human ALX receptor and the G-protein Gα16 (HEK293-hALXR-Gα16) were grown to 80% confluency in Growing Medium (GM). Cells were detached from culture dishes with a cell dissociation buffer (Invitrogen, 13151-014), and collected by centrifugation at 1,000 rpm at rt for 5 min in Assay Buffer (AB) (equal parts of Hank's BSS (Gibco, 14065-049) and DMEM without Phenol Red (Gibco, 11880-028)). After 60 min incubation at 37° C. under 5% CO2 in AB supplemented with 1 μM Fluo-4 (AM) (Invitrogen, F14202), and 20 mM HEPES (Gibco, 15630-056), the cells were washed and resuspended in AB. They were then seeded onto 384-well FLIPR assay plates (Greiner, 781091) at 50′000 cells in 70 μl per well and sedimented by centrifugation at 1,000 rpm for 1 min. Stock solutions of test compounds were made up at a concentration of 10 mM in DMSO, and serially diluted in AB to concentrations required for activation dose response curves. WKYMVm (Phoenix Peptides) was used as a reference agonist. FLIPR384 or FLIPR Tetra instruments (Molecular Devices) were operated according to the manufacturer's standard instructions, adding 4 μl of test compound dissolved at 10 mM in DMSO and diluted prior to the experiment in assay buffer to obtain the desired final concentration. Changes in fluorescence were monitored before and after the addition of test compounds at lex=488 nm and lem=540 nm. Emission peak values above base level after compounds addition were exported after base line subtraction. Values were normalized to high-level control (WKYMVm compound, 10 nM final concentration) after subtraction of the base line value (AB addition).

human FPRL2 = target: T2, human FPRL2 (Homo sapiens, UniProt P25089); test: Intracellular calcium measurements (FLIPR), agonistic activity in HEK293-hFPRL2-Gα16 cells; type: cell-based; settings: Fluo-4 calcium FLIPR, normalized to GLY14-Humanin 100 nM
T2 construct: expressed in transfected cells; host or cells: HEK293 (HEK293-hFPRL2-Gα16)
T2 sequence (P25089 1-353): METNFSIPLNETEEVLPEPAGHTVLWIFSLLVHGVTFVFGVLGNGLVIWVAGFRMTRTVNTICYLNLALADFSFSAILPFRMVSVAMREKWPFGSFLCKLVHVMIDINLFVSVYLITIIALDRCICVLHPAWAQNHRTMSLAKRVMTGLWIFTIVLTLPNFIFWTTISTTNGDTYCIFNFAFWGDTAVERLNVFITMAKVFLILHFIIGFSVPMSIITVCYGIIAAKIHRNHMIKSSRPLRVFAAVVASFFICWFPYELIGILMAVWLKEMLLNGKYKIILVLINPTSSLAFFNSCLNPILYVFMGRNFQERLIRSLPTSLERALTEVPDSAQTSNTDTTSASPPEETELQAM
Procedure: as §1, §2
Cells expressing recombinant human FPRL2 and the G-protein Gα16 (HEK293-hFPRL2-Gα16) were grown to 80% confluency in Growing Medium (GM). […] Stock solutions of test compounds were made up at a concentration of 10 mM in DMSO, and serially diluted in AB to concentrations required for activation dose response curves. Gly14-Humanin (Humanin peptide with replacement of Serine by Glycine at position 14, Phoenix Peptides) was used as a reference agonist. FLIPR384 or FLIPR Tetra instruments (Molecular Devices) were operated according to the manufacturer's standard instructions, adding 4 μl of test compound dissolved at 10 mM in DMSO and diluted prior to the experiment in assay buffer to obtain the desired final concentration. Changes in fluorescence were monitored before and after the addition of test compounds at lex=488 nm and lem=540 nm. Emission peak values above base level after compounds addition were exported after base line subtraction. Values were normalized to high-level control (GLY14-Humanin compound, 100 nM final concentration) after subtraction of the base line value (AB addition).

Row | EC50 (human ALX receptor) [nM] | EC50 (human FPRL2) [nM] | Compound
1 | 3.7 | 4120 | CCSCCNC(=O)[C@H]1[C@H](C(=O)Nc2ccc(Br)cc2)[C@@H]2C=C[C@H]1C21CC1 (racemic) [Example 24, (5R*)—N^5-(4-Bromophenyl)-(6R*)—N^6-(2-ethylsulfanyl-ethyl)-(4S*,7R*)-[4,7-ethenylene-spiro[2.4]heptane]-5,6-dicarboxamide]
2 | 4.8 | 5580 | O=C(NCCN1CCNC1=O)[C@H]1[C@H](C(=O)Nc2ccc(Br)cc2)[C@@H]2C=C[C@H]1C21CC1 (racemic) [Example 29, (5R*)—N^5-(4-Bromophenyl)-(6R*)—N^6-(2-imidazolidin-2-on-1-yl-ethyl)-(4S*,7R*)-[4,7-ethenylene-spiro[2.4]heptane]-5,6-dicarboxamide]
3 | 4.9 | 405 | O=C(NCCCN1CCCC1)[C@H]1[C@H](C(=O)Nc2ccc(Br)cc2)[C@@H]2C=C[C@H]1C21CC1 (racemic) [Example 30, (5R*)—N^5-(4-Bromophenyl)-(6R*)—N^6-(3-pyrrolidin-1-yl-propyl)-(4S*,7R*)-[4,7-ethenylene-spiro[2.4]heptane]-5,6-dicarboxamide]
4 | 5.4 | 3280 | O=C(NCCCc1nc2ccccc2[nH]1)[C@H]1[C@H](C(=O)Nc2ccc(Br)cc2)[C@@H]2C=C[C@H]1C21CC1 (racemic) [Example 32, (5R*)—N^5-(4-Bromophenyl)-(6R*)—N^6-(3-(1H-benzoimidazol-2-yl)-propyl)-(4S*,7R*)-[4,7-ethenylene-spiro[2.4]heptane]-5,6-dicarboxamide]
5 | 6.1 | 16100 | O=C(NCCO)[C@H]1[C@H](C(=O)Nc2ccc(Br)cc2)[C@@H]2C=C[C@H]1C21CC1 (racemic) [Example 34, (5R*)—N^5-(4-Bromophenyl)-(6R*)—N^6-(2-hydroxy-ethyl)-(4S*,7R*)-[4,7-ethenylene-spiro[2.4]heptane]-5,6-dicarboxamide]
6 | 6.1 | 1870 | COCCN(CCOC)C(=O)C1C(C(=O)Nc2ccc(Br)cc2)C2C=CC1C21CC1 (racemic) [Example 35, (5R*)—N^5-(4-Bromophenyl)-(6R*)—N^6,N^6-bis-(2-methoxy-ethyl)-(4S*,7R*)-[4,7-ethenylene-spiro[2.4]heptane]-5,6-dicarboxamide]
7 | 6.7 | 11500 | N#CCNC(=O)[C@H]1[C@H](C(=O)Nc2ccc(Br)cc2)[C@@H]2C=C[C@H]1C21CC1 (racemic) [Example 36, (5R*)—N^5-(4-Bromophenyl)-(6R*)—N^6-(cyano-methyl)-(4S*,7R*)-[4,7-ethenylene-spiro[2.4]heptane]-5,6-dicarboxamide]
8 | 7.1 | 1710 | O=C(NCCCn1cccn1)[C@H]1[C@H](C(=O)Nc2ccc(Br)cc2)[C@@H]2C=C[C@H]1C21CC1 (racemic) [Example 37, (5R*)—N^5-(4-Bromophenyl)-(6R*)—N^6-(3-1H-pyrazol-1-yl-propyl)-(4S*,7R*)-[4,7-ethenylene-spiro[2.4]heptane]-5,6-dicarboxamide]
9 | 7.5 | 1550 | NCc1ccc(CNC(=O)[C@H]2[C@H](C(=O)Nc3ccc(Br)cc3)[C@@H]3C=C[C@H]2C32CC2)cc1 (racemic) [Example 38, (5R*)—N^5-(4-Bromophenyl)-(6R*)—N^6-[(4-aminomethyl-phenyl)-methyl]-(4S*,7R*)-[4,7-ethenylene-spiro[2.4]heptane]-5,6-dicarboxamide]
10 | 7.6 | 1540 | CCN(CC)CCN(CC)C(=O)[C@H]1[C@H](C(=O)Nc2ccc(Br)cc2)[C@@H]2C=C[C@H]1C21CC1 (racemic) [Example 39, (5R*)—N^5-(4-Bromophenyl)-(6R*)—N^6-ethyl-N^6-(2-diethylamino-ethyl)-(4S*,7R*)-[4,7-ethenylene-spiro[2.4]heptane]-5,6-dicarboxamide]
11 | 9 | 848 | O=C(NCCCn1ccnc1)[C@H]1[C@H](C(=O)Nc2ccc(Br)cc2)[C@@H]2C=C[C@H]1C21CC1 (racemic) [Example 40, (5R*)—N^5-(4-Bromophenyl)-(6R*)—N^6-(3-1H-imidazol-1-yl-propyl)-(4S*,7R*)-[4,7-ethenylene-spiro[2.4]heptane]-5,6-dicarboxamide]
12 | 9.6 | 7840 | O=C(NCCCCO)[C@H]1[C@H](C(=O)Nc2ccc(Br)cc2)[C@@H]2C=C[C@H]1C21CC1 (racemic) [Example 42, (5R*)—N^5-(4-Bromophenyl)-(6R*)—N^6-(4-hydroxy-butyl)-(4S*,7R*)-[4,7-ethenylene-spiro[2.4]heptane]-5,6-dicarboxamide]
13 | 9.5 | 925 | CN1CCN(CCCNC(=O)[C@H]2[C@H](C(=O)Nc3ccc(Br)cc3)[C@@H]3C=C[C@H]2C32CC2)CC1 (racemic) [Example 43, (5R*)—N^5-(4-Bromophenyl)-(6R*)—N^6-(3-(4-methyl-piperazin-1-yl)-propyl)-(4S*,7R*)-[4,7-ethenylene-spiro[2.4]heptane]-5,6-dicarboxamide]
14 | 10 | 4910 | NCCNC(=O)[C@H]1[C@H](C(=O)Nc2ccc(Br)cc2)[C@@H]2C=C[C@H]1C21CC1 (racemic) [Example 44, (5R*)—N^5-(4-Bromophenyl)-(6R*)—N^6-(2-amino-ethyl)-(4S*,7R*)-[4,7-ethenylene-spiro[2.4]heptane]-5,6-dicarboxamide]
15 | 11 | 4160 | CN(C)CCN(C)C(=O)[C@H]1[C@H](C(=O)Nc2ccc(Br)cc2)[C@@H]2C=C[C@H]1C21CC1 (racemic) [Example 45, (5R*)—N^5-(4-Bromophenyl)-(6R*)—N^6-methyl-N^6-(2-dimethylamino-ethyl)-(4S*,7R*)-[4,7-ethenylene-spiro[2.4]heptane]-5,6-dicarboxamide]

Row | Compound | EC50 (human ALX receptor) [nM] | EC50 (human FPRL2) [nM]
16 | CC(C)(C)OC(=O)NCCCCNC(=O)[C@H]1[C@H](C(=O)Nc2ccc(Br)cc2)[C@@H]2C=C[C@H]1C21CC1 (racemic) [Example 46, (5R*)—N^5-(4-Bromophenyl)-(6R*)—N^6-(4-tert-butoxycarbonyl-amino-butyl)-(4S*,7R*)-[4,7-ethenylene-spiro[2.4]heptane]-5,6-dicarboxamide] | 11 | 1600
17 | CN(CCNC(=O)[C@H]1[C@H](C(=O)Nc2ccc(Br)cc2)[C@@H]2C=C[C@H]1C21CC1)C(=O)OC(C)(C)C (racemic) [Example 47, (5R*)—N^5-(4-Bromophenyl)-(6R*)—N^6-(2-(methyl-tert-butoxycarbonyl-amino)-ethyl)-(4S*,7R*)-[4,7-ethenylene-spiro[2.4]heptane]-5,6-dicarboxamide] | 12 | 1170
